According to patent US20130288980A1, “TARGETING SENESCENT AND CANCER CELLS FOR SELECTIVE KILLING BY INTERFERENCE WITH FOXO4” (Buck Institute for Research on Aging, priority 2012, published 2013):
Entries after “also recorded” stand apart in the source; their conditions may differ.

Columns and labels:
FOXO4 = FOXO4 knockdown by lentiviral short hairpins: FOXO4 mRNA (QPCR) and punctate FOXO4 staining after 10Gy XRAY; type: cell-based, human; conditions: HCA2 fibroblasts, 8 days after 10Gy XRAY
Protocol: FIG. 1A: 3×10^6 Normal Human IMR90 fibroblasts were plated in 6 cm dishes and the next day exposed to 10Gy ionizing radiation (XRAY) or left untreated. At the indicated time-points protein samples were prepared by collecting the cells in 1× Laemli Sample buffer. The indicated proteins were detected by western blot using antibodies against FOXO4 (#9472, Cell Signaling), FOXO3a (#07-702, Upstate/Millipore) and Tubulin (B-5-1-2, Sigma-Aldrich). FIG. 1B: 10^4 Normal human HCA2 fibroblasts were plated in 96-well plates in triplicate per condition and the next day exposed to 10Gy ionizing radiation (XRAY) or left untreated. At the indicated time-points mRNA and subsequent cDNA samples were collected using the Cells-to-Ct kit from Ambion according to the manufacturer's instructions. Real-time QPCR was subsequently performed using the Universal Probe Library system from Roche with the following primers/probe combinations: For FOXO4: Probe 18, FOXO4-fwd: 5′-[…]-3′, FOXO4-Rev: 5′-[…]-3′. For Tubulin: Probe 58, Tubulin-Fwd: 5′-[…]-3′ and Tubulin-Rev 5′-[…]-3′. Changes in mRNA expression were calculated using the ΔΔCT method. FIG. 1C: 2×10^5 IMR90 fibroblasts were plated on glass coverslips and the next day exposed to 10Gy ionizing radiation (XRAY) or left untreated. […]

[1] = system: BRAFV600E-driven melanoma cells such as A375; conditions: Sala et al. 2008; cited from earlier work
A375 melanoma cells = test: A375-shGFP versus A375-shFOXO4 sensitivity to chemotherapeutic agents (MTS); type: cell-based, human
Protocol: FIG. 12A: 2×10^4 A375-shGFP or A375-shFOXO4-2 cells were plated in triplicate in 96-well plate chambers. The next day the cells were incubated with the indicated concentrations of PLX4032 or left untreated. After 6 days the a CellTiter 96® AQueous One Solution Cell Proliferation Assay (MTS) was performed according to the manufacturer's instructions (Promega) to determine the relative number of cells versus Mock treated A375-shGFP or A375-shFOXO4-2 melanoma cells (Left panel). Additionally, in a separate experiment the cells were refreshed at day 7 with the same dose of PLX4032 and left for another 4 days after which the same procedure was performed. FIG. 12B: Similar experiment as in A), except with the general RAF inhibitor RAF265. FIG. 12C: Similar experiment as in A), except with the MEK inhibitor AZD6244.

metastatic melanoma = conditions: patients with metastatic melanoma; Bollag 2010, Sosman 2012; cited from earlier work
[2] = system: BRAFV600E-mutated A375 malignant melanoma cells; test: Cytochrome C release in shFOXO4-infected A375 cells treated with PLX4032; type: cell-based, human; conditions: shFOXO4 versus control hairpin; PLX4032 0.5, 2 and 10 μM
Protocol: FIG. 9B: BRAF^V600E-mutated A375 malignant melanoma cells were infected as in FIG. 2a and selected for 3 days with 1 μg/ml Puromycin. Subsequently 2×10^4 cells were plated in triplicate on glass coverslips in 24-well plate chambers. The next day the cells were incubated with the indicated concentrations of the BRAF^V600E-inhibitor PLX4032 in the presence of 20 μM of the general caspase-inhibitor Q-VD-OPH. After 5 days the cells were processed as in FIG. 2b for Cytochrome C staining and the percentage of cells with Cytochrome C release was quantified.

Molecule	knockdown of FOXO4 mRNA and reduction in punctate FOXO4 staining (FOXO4)	sensitivity of A375-shFOXO4 compared with A375-shGFP cells to the drug (A375 melanoma cells)	other results
5′-CGTCCACGAAGCAGTTCAAAT-3′ [shFOXO4-2]	induce knockdown of FOXO4 mRNA and reduction in punctate FOXO4	–	–
5′-CCAGCTTCAGTCAGCAGTTAT-3′ [shFOXO4-1]	induce knockdown of FOXO4 mRNA and reduction in punctate FOXO4	–	–
CCCS(=O)(=O)Nc1ccc(F)c(C(=O)c2c[nH]c3ncc(-c4ccc(Cl)cc4)cc23)c1F [PLX4032]	–	more sensitive	apoptosis [1]: trigger apoptosis; tumor-free survival rates (metastatic melanoma): Major improvements in tumor-free survival rates; sensitivity to PLX4032 on FOXO4 knockdown (Cytochrome C release) [2]: strongly sensitized; also recorded: Increased sensitivity
Cn1c(Nc2ccc(C(F)(F)F)cc2)nc2cc(Oc3ccnc(-c4ncc(C(F)(F)F)[nH]4)c3)ccc21 [RAF265]	–	more sensitive	–
Cn1cnc2c(F)c(Nc3ccc(Br)cc3Cl)c(C(=O)NOCCO)cc21 [AZD6244]	–	more sensitive	–
N.N.[Cl][Pt][Cl] [Cisplatin]	–	more sensitive	–
